Consider 15 compounds from patent publication US7855205B2, “Pyrimidinyl substituted fused-pyrrolyl compounds useful in treating kinase disorders” (Janssen Pharmaceutica NV, priority 2004, dated 2010).

Where two headings read alike, the source gives them in different places. Bounds are passed on as bounds.

The test system of assay [1] is A375 malignant melanoma. Put plainly: Inhibition of cell proliferation (14C-thymidine incorporation), A375. In kind it is cell-based, human. The method, then:
(§1) The ability of a test compound to inhibit the proliferation of cell growth was determined by measuring incorporation of ^14C-labelled thymidine into newly synthesized DNA within the cells. This method was used on cell lines derived from carcinomas originating from several tissues such as HeLa cervical adenocarcinoma (American Type Culture Collection (ATCC), Virginia, Cat. #CCL-2), A375 malignant melanoma (ATCC CRL-1619), HCT-116 colon carcinoma (CCL-247). In this way the effect of a compound on cell growth of cells with many different phenotypes can be determined. Cells were trypsinized and counted and 3000-8000 cells were added to each well of a 96-well CytoStar tissue culture treated scintillating microplate (Amersham #RPNQ0160) in complete medium in a volume of 100 μL. Cells were incubated for 24 hours in complete medium at 37° C. in an atmosphere containing 5% CO2.
(§2) Next, 1 μL of test compound in 100% DMSO was added to the wells of the plate. DMSO only was added to control wells. Cells were incubated for 24 more hours in complete medium at 37° C. in an atmosphere containing 5% CO2. Methyl ^14C-thymidine 56 mCi/mmol (NEN #NEC568 or Amersham #CFA532) was diluted in complete medium and 0.2 uCi/well was added to each well of the CytoStar plate in a volume of 20 μl. The plate was incubated for 24 hours at 37° C. plus 5% CO2 in drug plus ^14C-thymidine. The contents of the plate discarded into a ^14C radioactive waste container by inverting the plate and the plate was washed twice with 200 μL PBS.
(§3) 200 μL of PBS is added to each well. The top of the plate was sealed with a transparent plate sealer and a white plate backing sealer (Packard #6005199) was applied to the bottom of the plate. The degree of methyl ^14C-thymidine incorporation was quantified on a Packard Top Count.

Assay [2] addresses T1, CDK1:Cyclin-B (Homo sapiens, UniProt P06493).
T1 construct: purchased New England Biolabs, Beverly, Mass; 6020; host or cells: insect cells
Briefly: CDK1 Screening Assay. It counts as biochemical. The note with it: 33P-γ-ATP incorporation, 10 μM ATP. As for the experimental part:
(§4) A kinase reaction mixture was prepared containing 50 mM Tris-HCl pH=8, 10 mM MgCl2, 0.1 mM […], 1 mM DTT, 10 μM ATP, 0.025 μM biotinylated histone-HI peptide substrate and […] per well ^33P-γ-ATP (2000-3000 Ci/mmol). 70 μL of the kinase reaction mixture was dispensed into the well of a streptavidin coated FlashPlate™ (Cat. # SMP103, NEN, Boston, Mass.). Then 1 μL of test compound stock in 100% DMSO was added to the wells resulting in a final concentration of 1% DMSO in the reaction with a 100 μL final reaction volume.
(§5) The CDK1:Cyclin-B protein was then diluted in 50 mM Tris-HCl pH=8.0, 0.1% BSA at a concentration of 1 ng per μL and 30 μL (30 ng enzyme per test well) was added to each well to initiate the reaction. The reaction was incubated for one hour at 30° C. At the end of the 1 h incubation, the reaction was terminated by aspirating the mixture from the plate and washing the wells twice with PBS containing 100 mM EDTA. The histone-H1 biotinylated peptide substrate became immobilized on the Flashplate™ and the incorporation of ^33P-γ-ATP was measured by reading the plate on a scintillation counter. Inhibition of the enzymatic activity of CDK1 was measured by observing a reduced amount of ^33P-γ-ATP incorporated into the immobilized peptide.
The CDK1 used was isolated from insect cells expressing both the human CDK1 catalytic subunit and its positive regulatory subunit cyclin B (New England Biolabs, Beverly, Mass., Cat. #6020).
(§6) • VEGF-R2, HER2 and (Biotin)[…]-Amide • RET kinases • CDK1 (Biotin)[…]-Amide • Aurora-A kinase Biotin-[…]-Amide

Assay [3] relates to HeLa cervical adenocarcinoma. Briefly: Inhibition of cell proliferation (14C-thymidine incorporation), HeLa.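 Further: HeLa cells in 96-well scintillating plates, compound for 24 h then 24 h more with 14C-thymidine, counting label built into new DNA against DMSO-only control wells.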 In kind it is cell-based.
The subject of assay [4] is HCT-116 colon carcinoma. Briefly: Inhibition of cell proliferation (14C-thymidine incorporation), HCT-116. It counts as cell-based. The method, then: as §1, §2, §3
Assay [5] deals with T2, VEGF-R2 (Rattus norvegicus, UniProt O08775).
T2 construct: polyhistidine (N)
Briefly: VEGF-R2 Screening Assay. It counts as biochemical. The note with it: 33P-γ-ATP incorporation, 10 μM ATP. The method, then:
as §5, with “Then 1 μL of test compound stock in 100% DMSO was added to the wells resulting in a final concentration of 1% DMSO in the reaction with a 100 μL final reaction volume. The CDK1:Cyclin-B” for “The CDK1:Cyclin-B”, “immobilized peptide. The VEGF-R kinase assay was carried out using the CDK kinase assay procedure except that the enzyme was replaced with the VEGF-R2 fusion protein containing a polyhistidine tag at the N-terminus followed by amino acids 786-1343 of the rat VEGF-R2 kinase domain (GenBank Accession #U93306).” for “immobilized peptide.”

Assay [6] concerns the target T3, Aurora-A (Mus musculus, UniProt P97477).
T3 construct: made in house; host or cells: sf9 insect cells
T3 sequence (P97477 1-395): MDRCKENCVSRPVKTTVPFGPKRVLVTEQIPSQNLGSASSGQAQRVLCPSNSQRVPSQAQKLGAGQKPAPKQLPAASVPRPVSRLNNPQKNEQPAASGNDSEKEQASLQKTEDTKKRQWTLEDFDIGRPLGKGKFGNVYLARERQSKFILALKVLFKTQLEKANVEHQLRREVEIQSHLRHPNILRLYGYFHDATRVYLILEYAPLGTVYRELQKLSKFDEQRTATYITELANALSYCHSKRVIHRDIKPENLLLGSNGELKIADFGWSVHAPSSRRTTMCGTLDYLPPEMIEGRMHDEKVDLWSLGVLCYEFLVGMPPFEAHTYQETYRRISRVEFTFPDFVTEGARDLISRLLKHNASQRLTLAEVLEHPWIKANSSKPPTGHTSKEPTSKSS
Briefly: Aurora-A Screening Assay. In kind it is biochemical, murine. The note with it: 33P-γ-ATP incorporation, 10 μM ATP. As for the experimental part: as §4, §5
The Aurora-A kinase assay was carried out using the CDK kinase assay procedure except that the enzyme was replaced with the full length protein encoding the murine Aurora-A (Accession# GB BC014711) expressed and purified from sf9 insect cells.
as §6

T2 sequence (O08775 786-1343): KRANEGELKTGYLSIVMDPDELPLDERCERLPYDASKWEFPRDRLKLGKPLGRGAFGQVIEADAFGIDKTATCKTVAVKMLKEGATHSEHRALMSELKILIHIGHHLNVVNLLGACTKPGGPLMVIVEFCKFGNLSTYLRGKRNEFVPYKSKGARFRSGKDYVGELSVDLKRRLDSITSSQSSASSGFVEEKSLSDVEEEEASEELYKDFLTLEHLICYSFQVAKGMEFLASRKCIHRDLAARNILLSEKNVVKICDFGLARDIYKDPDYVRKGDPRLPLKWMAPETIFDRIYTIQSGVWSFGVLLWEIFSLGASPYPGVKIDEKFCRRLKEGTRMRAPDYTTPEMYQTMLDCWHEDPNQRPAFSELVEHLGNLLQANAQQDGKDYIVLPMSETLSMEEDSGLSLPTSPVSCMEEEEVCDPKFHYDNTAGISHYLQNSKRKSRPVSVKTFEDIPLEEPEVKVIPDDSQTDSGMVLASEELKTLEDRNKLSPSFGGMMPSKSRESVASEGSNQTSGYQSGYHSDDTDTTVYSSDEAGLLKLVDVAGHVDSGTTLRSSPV
T1 sequence (P06493 whole entry): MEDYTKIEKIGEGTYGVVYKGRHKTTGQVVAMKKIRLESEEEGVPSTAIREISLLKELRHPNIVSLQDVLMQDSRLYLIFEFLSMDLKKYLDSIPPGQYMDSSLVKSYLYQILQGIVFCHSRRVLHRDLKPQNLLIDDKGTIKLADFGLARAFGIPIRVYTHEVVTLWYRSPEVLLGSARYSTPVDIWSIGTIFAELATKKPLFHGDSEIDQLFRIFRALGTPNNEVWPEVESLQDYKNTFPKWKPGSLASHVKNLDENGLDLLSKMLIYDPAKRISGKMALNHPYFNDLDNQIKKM
T1 sequence (P14635 whole entry partner): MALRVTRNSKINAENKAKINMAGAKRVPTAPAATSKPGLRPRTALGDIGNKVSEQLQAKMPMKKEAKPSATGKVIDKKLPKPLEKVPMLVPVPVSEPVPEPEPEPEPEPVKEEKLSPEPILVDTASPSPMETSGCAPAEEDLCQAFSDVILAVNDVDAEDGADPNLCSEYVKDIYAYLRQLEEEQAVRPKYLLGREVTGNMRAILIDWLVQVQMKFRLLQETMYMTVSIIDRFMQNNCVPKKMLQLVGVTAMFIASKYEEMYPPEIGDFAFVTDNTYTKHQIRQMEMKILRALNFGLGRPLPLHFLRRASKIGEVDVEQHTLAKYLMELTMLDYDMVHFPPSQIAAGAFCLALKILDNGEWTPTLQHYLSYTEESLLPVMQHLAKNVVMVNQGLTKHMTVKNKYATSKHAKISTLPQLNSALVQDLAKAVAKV

For the compound `c1cnc2[nH]cc(-c3ccnc(N[C@@H]4CC5CCC4C5)n3)c2c1` (stereo partly drawn) [Cpd 58, (2R)-Bicyclo[2.2.1]hept-2-yl-[4-(1H-pyrrolo[2,3-b]pyridin-3-yl)-pyrimidin-2-yl]-amine], the IC50 was determined as 0.277 µM in assay [1] (Homo sapiens, A-375); 0.109 µM in assay [2]; 0.514 µM in assay [3] (Homo sapiens); 0.222 µM in assay [4] (Homo sapiens, HCT-116, HCT116); 1.54 µM in assay [5]; 0.566 µM in assay [6].

`Cn1cc(-c2ccnc(N[C@H]3CC[C@H](O)CC3)n2)c2cccnc21` [Cpd 71, trans-4-[4-(1-Methyl-1H-pyrrolo[2,3-b]pyridin-3-yl)-pyrimidin-2-ylamino]-cyclohexanol]: the IC50 came to 7.15 µM in assay [1] (Homo sapiens, A-375); 1.65 µM in assay [2]; 9.51 µM in assay [3] (Homo sapiens); 4.46 µM in assay [4] (Homo sapiens, HCT-116, HCT116).

Regarding `O=S(=O)(c1ccccc1)n1cc(-c2ccnc(N[C@H]3CC[C@H](O)CC3)n2)c2cccnc21` [Cpd 75, trans-4-[4-(1-Benzenesulfonyl-1H-pyrrolo[2,3-b]pyridin-3-yl)-pyrimidin-2-ylamino]-cyclohexanol], the IC50 in assay [1] was found to be 2.81 µM; in assay [2] it was 2.02 µM; in assay [3] it was 1.99 µM; in assay [4] (HCT116) it was 1.58 µM; in assay [6], 10 µM.

Regarding `CNCCOc1ccc(Nc2nccc(-c3c[nH]c4ncccc34)n2)c(C)c1` [Cpd 80, [4-(2-Methylamino-ethoxy)-2-methyl-phenyl]-[4-(1H-pyrrolo[2,3-b]pyridin-3-yl)-pyrimidin-2-yl]-amine], the IC50 in assay [1] (Homo sapiens, A-375) was determined as 4.54 µM; in assay [2], 2.31 µM; in assay [3] (Homo sapiens) it was 2.58 µM; in assay [4] (Homo sapiens, HCT-116, HCT116) it was 3.87 µM; in assay [5], 10 µM.

Regarding `CN(C)CC(O)Cn1cc(-c2ccnc(N[C@H]3CC[C@H](O)CC3)n2)c2cccnc21` (relative stereo) [Cpd 76, trans-4-{4-[1-(3-Dimethylamino-2-hydroxy-propyl)-1H-pyrrolo[2,3-b]pyridin-3-yl]-pyrimidin-2-ylamino}-cyclohexanol], the IC50 was 0.298 µM in assay [1] (Homo sapiens, A-375); 1.35 µM in assay [2]; 0.21 µM in assay [3] (Homo sapiens); 0.157 µM in assay [4] (Homo sapiens, HCT-116, HCT116); 10 µM in assay [5].

As to `Cc1cc(CCO)ccc1Nc1nccc(-c2c[nH]c3ncccc23)n1` [Cpd 44], the IC50 was 0.00845 µM in assay [1] (Homo sapiens, A-375); 0.011 µM in assay [3] (Homo sapiens); 0.00398 µM in assay [4] (Homo sapiens, HCT-116, HCT116); 0.493 µM in assay [5]; 0.142 µM in assay [6].

For `CN(C)CCn1cc(-c2ccnc(NC3CCCCC3)n2)c2cccnc21` [Cpd 69, Cyclohexyl-{4-[1-(2-dimethylaminoethyl)-1H-pyrrolo[2,3-b]pyridin-3-yl]-pyrimidin-2-yl}-amine], the IC50 in assay [1] (Homo sapiens, A-375) amounted to 7.69 µM; in assay [2], 10.4 µM; in assay [3] (Homo sapiens), 8.9 µM; in assay [4] (Homo sapiens, HCT-116, HCT116), 13.4 µM.

With `CN(C)CCn1cc(-c2ccnc(N[C@H]3CC[C@H](O)CC3)n2)c2cccnc21` [Cpd 74, trans-4-{4-[1-(2-Dimethylaminoethyl)-1H-pyrrolo[2,3-b]pyridin-3-yl]-pyrimidin-2-ylamino}-cyclohexanol], the IC50 in assay [1] (Homo sapiens, A-375) is 3.02 µM; in assay [2], 3.89 µM; in assay [3] (Homo sapiens), 4.53 µM; in assay [4] (Homo sapiens, HCT-116, HCT116), 3.76 µM.

As to `OCCn1cc(-c2ccnc(NC3CCCCC3)n2)c2cccnc21` [Cpd 70, Cyclohexyl-{4-[1-(2-hydroxyethyl)-1H-pyrrolo[2,3-b]pyridin-3-yl]-pyrimidin-2-yl}-amine], the IC50 was found to be 5.93 µM in assay [1] (Homo sapiens, A-375); 3.21 µM in assay [2]; 6.29 µM in assay [3] (Homo sapiens); 3.97 µM in assay [4] (Homo sapiens, HCT-116, HCT116).

Consider `Cc1cc(OCCN(C)C)ccc1Nc1nccc(-c2c[nH]c3ncccc23)n1` [Cpd 81, [4-(2-Dimethylamino-ethoxy)-2-methyl-phenyl]-[4-(1H-pyrrolo[2,3-b]pyridin-3-yl)-pyrimidin-2-yl]-amine], for which the IC50 stood at 2.81 µM in assay [1] (Homo sapiens, A-375); 1.87 µM in assay [2]; 13.2 µM in assay [3] (Homo sapiens); 4.54 µM in assay [4] (Homo sapiens, HCT-116, HCT116).

On to `Cc1ccccc1Nc1nccc(-c2c[nH]c3ncccc23)n1` [Cpd 8, [4-(1H-Pyrrolo[2,3-b]pyridin-3-yl)-pyrimidin-2-yl]-o-tolyl-amine], for which the IC50 in assay [1] (Homo sapiens, A-375) came to 0.024 µM; in assay [2], 0.0037 µM; in assay [4] (Homo sapiens, HCT-116, HCT116) it was 0.024 µM; in assay [5] it was 0.57 µM; in assay [6] it was 0.301 µM.

In the case of `Cc1cccc(Nc2nccc(-c3c[nH]c4ncccc34)n2)c1` [Cpd 9, [4-(1H-Pyrrolo[2,3-b]pyridin-3-yl)-pyrimidin-2-yl]-m-tolyl-amine], the IC50 turned out to be 0.34 µM in assay [1] (Homo sapiens, A-375); 0.057 µM in assay [2]; 0.25 µM in assay [4] (Homo sapiens, HCT-116, HCT116); 0.0967 µM in assay [5]; 0.136 µM in assay [6].

On to `CNCCn1cc(-c2ccnc(N[C@H]3CC[C@H](O)CC3)n2)c2cccnc21` [Cpd 73, trans-4-{4-[1-(2-Methylaminoethyl)-1H-pyrrolo[2,3-b]pyridin-3-yl]-pyrimidin-2-ylamino}-cyclohexanol], for which the IC50 in assay [1] (Homo sapiens, A-375) is 3.95 µM; in assay [2], 7.02 µM; in assay [3] (Homo sapiens), 4.16 µM; in assay [4] (Homo sapiens, HCT-116, HCT116) it was 3.51 µM.

For the compound `Clc1ccc(Nc2nccc(-c3c[nH]c4ncccc34)n2)c(Cl)c1` [Cpd 36, (2,4-Dichlorophenyl)-[4-(1H-pyrrolo[2,3-b]pyridin-3-yl)-pyrimidin-2-yl]-amine], the IC50 was 0.448 µM in assay [1] (Homo sapiens, A-375); 0.0223 µM in assay [2]; 0.467 µM in assay [3] (Homo sapiens); 0.277 µM in assay [4] (Homo sapiens, HCT-116, HCT116); 1 µM in assay [6].

Take `Cn1cc(-c2ccnc(NC3CCCCC3)n2)c2cccnc21` [Cpd 66, Cyclohexyl-[4-(1-methyl-1H-pyrrolo[2,3-b]pyridin-3-yl)pyrimidin-2-yl]-amine]: the IC50 was at least 10 µM in assay [1] (Homo sapiens, A-375); 52.2 µM in assay [3] (Homo sapiens); at least 10 µM in assay [4] (Homo sapiens, HCT-116, HCT116).
